Source: patent publication US20080026054A1, “Novel anelgesic combination” (NECTID INC., priority 2007, published 2008)
Structures can show the parent of a compound that is named as a salt.

Test system: patients suffering from Chronic non-cancer pain (CNCP)
Experiment: Human clinical trial, pain scored by visual analogue scale (VAS)
Format: in vivo
Details: mean ± SD, scale 0-100 mm
Source text: The present inventions disclosed in this specification further include a method of treating pain and pain related conditions. This was established using a well controlled human clinical trial. The method of treating pain and pain related conditions by using a combination disclosed by this invention has been established in a long-term controlled clinical evaluation. A typical study determined the efficacy of tramadol and meloxicam as monotherapy and a combination of meloxicam and a slow release tramadol for the treatment of pain and pain related conditions
• Tramadol hydrochloride: Generic Tramadol Hydrochloride tablets 50 mg, • Meloxicam: Generic Meloxicam tablets 7.5 mg • Slow Release Tramadol Hydrochloride: a) Example 1, b) Ultram ER 100 mg
The administered dosage comprised either tramadol hydrochloride (100 mg) or meloxicam 7.5 mg or a combination of meloxicam (7.5 mg) and slow release tramadol hydrochloride (100 mg) selected from Treatments D or E or a combination of meloxicam 5 mg and a slow release tramadol 100 mg (Treatment F) was administered once a day to the patients in a long-term clinical trial.
140 patients were used in a clinical trial were suffering from Chronic non-cancer pain (CNCP), defined as pain for longer than 6 months, including neuropathic pain, osteoarthritis, rheumatoid arthritis, fibromyalgia, and back and musculoskeletal pain were included in the clinical trial.
Those patients with migraines, dental pain, abdominal pains (from chronic pancreatitis, kidney stones, etc.) and ischemic pain from vascular disease were excluded because they are usually not classified as CNCP. Patients with history of addiction (alcohol or drugs) were excluded from the trials
Randomization was performed with computer-generated random numbers in blocks of 10. Randomization codes of the monotherapy or combination therapy treatments were placed in sequentially numbered, opaque, sealed envelopes in the biopsy center. When a patient was recruited and consented, the next numbered envelope was opened by the operator, who had no knowledge of the randomization code before the treatment
Pain was assessed using a visual analogue scale (VAS) graded from 0-100 mm. Pain scoring was performed every three hours after drug administration for a total of 24 hours.
The patients were taught with a standard method by the physician how to use a VAS scoring from 0 to 100 mm to grade the intensity of pain experienced during the treatment. On that scale, the left endpoint, 0, was defined as no pain and the right endpoint 100, as the worst pain the patient could imagine. There were no further marks on the line. The intensity of pain was indicated by the distance in millimeters from the left end. Patients were asked to grade the pain intensity immediately after the administration of drugs and every three hour after for 24 hours by drawing a vertical line over each VAS line. The doctors who prescribed the medicines obtained all the VAS forms for that specific patient.
Data are expressed as means ±SD. Differences in VAS were analyzed with use of the unpaired Student t test and differences in pain score reductions between the two groups were analyzed with use of the Mann-Whitney U test for the median difference. Similar statistical tests were used for between group comparisons of other outcome variables as appropriate. A two tailed P value of less than. […] SAS software was used for the statistical analysis.
We considered that a clinically significant benefit of using meloxicam and slow release tramadol would be a reduction in the pain score (VAS) of at least 15% compared to the monotherapy with either tramadol hydrochloride or naproxen or meloxicam or placebo. Alternatively, the dose reduction of at least 15% of either NSAID or tramadol when used as combination over the monotherapy as significant benefit

SMILES | Pain scored by VAS (VAS time 0 hours) [mm] | Pain scored by VAS (VAS time 3 hours) [mm] | Pain scored by VAS (VAS time 6 hours) [mm] | Pain scored by VAS (VAS time 9 hours) [mm] | Pain scored by VAS (VAS time 12 hours) [mm] | Pain scored by VAS (VAS time 15 hours) [mm] | Pain scored by VAS (VAS time 18 hours) [mm] | Pain scored by VAS (VAS time 21 hours) [mm] | Pain scored by VAS (VAS time 24 hours) [mm]
COc1cccc([C@@]2(O)CCCC[C@@H]2CN(C)C)c1 (racemic) [Treatment A, (±) cis-2-[(dimethylamino)methyl]-1-(3-methoxyphenyl)cyclo-hexanol hydrochloride] | 30.3 ± 21.2 | 22.3 ± 20.1 | 18.3 ± 20.6 | 15.3 ± 17.2 | 12.3 ± 21.2 | 14.3 ± 19.2 | 15.3 ± 21.3 | 14.3 ± 19.2 | 14.3 ± 19.2
Cc1cnc(N/C(O)=C2/C(=O)c3ccccc3S(=O)(=O)N2C)s1 [Treatment B, 4-hydroxy-2-methyl-N-(5-methyl-2-thiazolyl)-2H-1,2-benzothiazine-3-carboxamide-1,1-dioxide] | 34 ± 19.1 | 18 ± 19.1 | 14 ± 21.1 | 14 ± 20.3 | 15 ± 18.6 | 17 ± 21.5 | 19 ± 19.7 | 20 ± 18.3 | 25 ± 20.9
